Assay results taken from US20260076369A1, “USE OF MELATONIN AND/OR PRECURSOR THEREOF FOR DECREASING THE PLANT NITRATE CONTENT” (priority 2022, published 2026).
Marks after values point to notes of the source that are not given here.

Legend:
[1] = test system: Lettuce plants (Lactuca sativa L.); assay: Nitrate concentration in lettuce leaves after foliar spray; assay type: in vivo; conditions: for decrease of leaves nitrate content: 20 micromolar, vs control; for Nitrate concentration in lettuce leaves: 20 micromolar spray with Tween 20; for time the decrease of leaf nitrate content is maintained after the treatment: lettuce, 20 micromolar foliar spray
Protocol: Lettuce plants (Lactuca sativa L.), were cultivated in pots containing an alkaline soil and receiving mineral fertilization including ammonium nitrate (NAC 27) in a greenhouse under controlled conditions (16 h light/8 h dark and 25° C.). Once the commercial size of the plants was reached, the plants were divided in three groups. The Control group (CT) was sprayed with water and a surfactant (Tween 20); the melatonin (M) group was sprayed with a solution of 20 micromolar of synthetic melatonin and the adjuvant; and the tryptophan group (Tr) was sprayed with a solution of 20 micromolar of biosynthetic tryptophan and the adjuvant. The plants were harvested 48 h and […] after foliar application at 12 am. Nitrate concentration in the leaves was determined in leaf water extract by colorimetric detection at 415 nm after reaction of nitrate with salicylic acid in acidic medium and the formation of nitrosalicylate. Each treatment and harvest had five plants.

[2] = test system: French Bean plants (Phaseolus vulgaris); assay: Nitrate concentration in bean leaves after soil application; assay type: in vivo; conditions: 20 micromolar total
Protocol: French Bean plants (Phaseolus vulgaris), were cultivated in pots containing a peat substrate and receiving mineral fertilization including 40 kg N/hectare by ammonium nitrate and 20 kg SO3/hectare by magnesium sulfate in a greenhouse under controlled conditions (16 h light/8 h dark and 25° C.). The fertilizers were brought to the surface of the pots after 10 days of culture.
Just after adding the fertilizers, the plants were divided in four groups. The experiment was arranged in a randomized complete block design with six replicates. The Control group (CT) was without any treatment; 3 groups were treated by addition of an aqueous solution of (1) synthetic melatonin (SM) (20 micromolar), (2) phytomelatonin (pM) (20 micromolar) from a Spirulina extract and (3) a combination of synthetic melatonin (10 micromolar), and phytomelatonin from a rich Spirulina extract (CM) (10 micromolar). Applications have been done in the soils 10 days after transplantation and one time every 7 days. Plants were harvested 6 weeks after transplanting and 2 weeks after the last treatment. Then leaves were dried and used for the determination of dry weight and nitrate content. Nitrate concentration in the leaves was determined by High Performance Ionic Chromatography. The results were expressed in mg NO3/g of dry matter.

[3] = harvest 48 h after foliar application, CT 1563
[4] = harvest 120 h after foliar application, CT 1452

| SMILES | decrease of leaves nitrate content ([1]; 48 h after the treatment) | decrease of leaves nitrate content ([1]; 120 h after the treatment) | Nitrate concentration in lettuce leaves [1, 3] | Nitrate concentration in lettuce leaves [1, 4] | time the decrease of leaf nitrate content is maintained after the treatment [1] | decrease of nitrate content in bean leaves ([2]; 2 weeks after the last treatment, vs control) | Nitrate content in bean leaves ([2]; applied to soil every 7 days, harvest 2 weeks after last treatment, CT 2.47) |
| --- | --- | --- | --- | --- | --- | --- | --- |
| COc1ccc2[nH]cc(CCNC(C)=O)c2c1 [Melatonin, N-acetyl-5-methoxy tryptamine] | 53% | 50% | 738* mg kg^−1 fresh weight | 706* mg kg^−1 fresh weight | at least 5 days | 79% | 0.52* mg/g of dry weight |
| N[C@@H](Cc1c[nH]c2ccccc12)C(=O)O [tryptophan] | 50% | 39% | 780* mg kg^−1 fresh weight | 887* mg kg^−1 fresh weight | at least 5 days | – | – |
